Converted amounts (≈) assume the structure as drawn. Read-outs that look alike come from different tables or passages of the source.
How the values were obtained:
[1] = target: T1, H. pylori MTAN (Helicobacter pylori, UniProt Q9ZMY2); experiment: Ki determination: inhibition of recombinant HpMTAN, xanthine oxidase coupled assay, 5′-methylthioadenosine as substrate; assay type: biochemical
T1 construct: His6 (N); made in house; host or cells: E. coli BL21 (DE3)
T1 sequence (Q9ZMY2 1-230): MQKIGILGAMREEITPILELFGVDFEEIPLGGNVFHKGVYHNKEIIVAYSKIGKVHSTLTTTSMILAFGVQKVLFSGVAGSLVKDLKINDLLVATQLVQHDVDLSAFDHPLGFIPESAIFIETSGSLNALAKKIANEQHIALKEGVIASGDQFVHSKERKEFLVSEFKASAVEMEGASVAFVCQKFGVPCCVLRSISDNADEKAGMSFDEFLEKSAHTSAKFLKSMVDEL
Method: The purification procedure of HpMTAN was described previously^10. Briefly, BL21 (DE3) cells harboring a plasmid encoding HpMTAN with an N-terminal His6-tag were grown to an optical density of 0.7 measured at 595 nm and IPTG was introduced to a final concentration of 0.5 mM. After another 15 h at 22° C., cells were collected by centrifugation. The pellet was suspended and later disrupted by pressure cell and sonication. The soluble portion was applied to a Ni-NTA column and HpMTAN was eluted with an imidazole concentration gradient of 200 to 500 mM. The protein was desalted using a Superdex G15 gel-filtration column then equilibrated and concentrated in 10 mM Hepes, 30 mM KCl, pH 7.6. The purity was confirmed by SDS-PAGE.
Kinetics of HpMTAN were determined using a direct assay involving absorbance decrease at 274 nm continuously as a consequence of formation of free adenine from 5′-methylthioadenosine. The Ki and Ki* values of BuT-DADMe-ImmA (30) were determined using coupled assays, in which xanthine oxidase was used as the coupling enzyme and absorbance increase was followed at 292 nm as the product adenine is converted to 2,8-dihydroxyadenine. Both assays have been previously described
BuT-DADMe-ImmA (30) was previously characterized as a transition state analogue inhibitor of EcMTAN (FIG. 1C)^8. Here, inhibition assays were performed using BuT-DADMe-ImmA against recombinant HpMTAN with 5′-methylthioadenosine as substrate. Purified HpMTAN uses both 5′-methylthioadenosine and 6-amino-6-deoxyfutalosine as facile substrates. […] The low Kd value supports the proposal that BuT-DADMe-ImmA is a transition state analogue inhibitor for HpMTAN. […] The nitrogen of the hydroxypyrrolidine moiety has a pKa value of 9, and thus mimics the positive charge of a ribocation at the transition state. The methylene bridge extends the distance between the sugar and the purine base leaving group, as this distance is near 3 Å at the transition state. The 9-deazaadenine alters conjugation in the purine ring, causing an elevated pKa and protonation of N7, resembling the N7-protonated adenine leaving group at the transition state.

[2] = test system: H. pylori; experiment: H. pylori growth on tryptic soy agar with 5% horse blood (MIC); assay type: cell-based, Helicobacter pylori; details: Helicobacter pylori, read-out: Inhibition of H. pylori growth MIC90
Method: H. pylori were grown for 72 hours under microaerophilic condition (5% O2, 10% CO2 and 85% N2) at 37° C. on tryptic soy agar with 5% horse blood. To determine the MIC values, the test substance was added to the gel solution right before pouring. To compare the zones of inhibition, specific antibiotics were added to the center of disc after spreading H. pylori, and then H. pylori was allowed to grow for 72 hours under microaerophilic condition at 37° C.
The effects of BuT-DADMe-ImmA (30) were tested on H. pylori growing on 5% horse blood agar. At 6 ng/ml, slight growth was detected and at 8 ng/ml, no growth was detected, therefore the MIC90 value for inhibition of H. pylori growth is <8 ng/ml (FIG. 3A).

[3] = target: T1, H. pylori MTAN; details: Table 3, cited from earlier work
[4] = Table 3, DADMe-Immucillin-A series, initial inhibition constant, read-out: Inhibition of H. pylori MTAN Ki
[5] = Table 3, equilibrium dissociation constant after slow onset, read-out: Inhibition of H. pylori MTAN Ki*
[6] = Table 3, agar plate, 72 hours, microaerophilic
[7] = Table 4, Immucillin-A series, read-out: Inhibition of H. pylori MTAN Ki
[8] = 72 h, Table 4, Immucillin-A series
[9] = Table 4, Immucillin-A series, read-out: Inhibition of H. pylori MTAN Ki*

Structure (SMILES)	Ki [1, 4] [nM]	Ki [1, 5] [nM]	MIC90 [2, 6] [µg/mL]	further results
Nc1ncnc2c(CN3CC(O)[C@@H](CSCCO)C3)c[nH]c12 (stereo partly drawn) [Compound 10, (4S)-1-((4-amino-5H-pyrrolo[3,2-d]pyrimidin-7-yl)methyl)-4-(((2-hydroxyethyl)thio)methyl)pyrrolidin-3-ol]	0.43 ± 0.12	0.04 ± 0.01		
Nc1ncnc2c(CN3CC(O)[C@@H](CSCCCO)C3)c[nH]c12 (stereo partly drawn) [Compound 11, (4S)-1-((4-Amino-5H-pyrrolo[3,2-d]pyrimidin-7-yl)methyl)-4-(((3-hydroxypropyl)thio)methyl)pyrrolidin-3-ol]	0.89 ± 0.13	0.1 ± 0.01	0.04 (≈ 0.119 µM)	
Nc1ncnc2c(CN3CC(O)[C@@H](CSCCCCO)C3)c[nH]c12 (stereo partly drawn) [Compound 12, (4S)-1-((4-Amino-5H-pyrrolo[3,2-d]pyrimidin-7-yl)methyl)-4-(((4-hydroxybutyl)thio)methyl)pyrrolidin-3-ol]	0.34 ± 0.07	0.11 ± 0.04	0.02 (≈ 0.0569 µM)	
Nc1ncnc2c(CN3CC(O)[C@@H](CSCCOCCO)C3)c[nH]c12 (stereo partly drawn) [Compound 13, (4S)-1-((4-Amino-5H-pyrrolo[3,2-d]pyrimidin-7-yl)methyl)-4-(((2-(2-hydroxyethoxyl)ethyl)thio)methyl)pyrrolidin-3-ol]	0.96 ± 0.16	0.015 ± 0.004	0.035 to 0.07 (≈ 0.0952 to 0.19 µM)	
C#CCCCCSC[C@H]1CN(Cc2c[nH]c3c(N)ncnc23)C[C@@H]1O [Compound 14, (3R,4S)-1-({4-Amino-5H-pyrrolo[3,2-d]pyrimidin-7-yl}methyl)-4-[(hex-5-yn-1-ylthio)methyl]pyrrolidin-3-ol]	0.5 ± 0.2	0.09 ± 0.02	0.004 to 0.008 (≈ 0.0111 to 0.0223 µM)	
Nc1ncnc2c(CN3C[C@H](CCSCCO)[C@@H](O)C3)c[nH]c12 [Compound 16, (3R,4S)-1-({4-Amino-5H-pyrrolo[3,2-d]pyrimidin-7-yl}methyl)-4-{2-[(2-hydroxyethyl)thio]ethyl}pyrrolidin-3-ol]	0.26 ± 0.03	0.05 ± 0.01	0.08 (≈ 0.237 µM)	
Nc1ncnc2c(CN3C[C@H](CCSCCOCCO)[C@@H](O)C3)c[nH]c12 [Compound 17, (3R,4S)-1-({4-Amino-5H-pyrrolo[3,2-d]pyrimidin-7-yl}methyl)-4-(2-{[2-(2-hydroxyethoxy)ethyl]thio}ethyl)pyrrolidin-3-ol]	0.28 ± 0.03	0.05 ± 0.01	0.08 (≈ 0.21 µM)	
CCCCCCSC[C@H]1CN(Cc2c[nH]c3c(N)ncnc23)C[C@@H]1O [Compound 18, (3R,4S)-1-({4-Amino-5H-pyrrolo[3,2-d]pyrimidin-7-yl}methyl)-4-[(hexylthio)methyl]pyrrolidin-3-ol]	0.21 ± 0.03	0.005 ± 0.002	0.004 to 0.008 (≈ 0.011 to 0.022 µM)	
CCCCCCSCC[C@H]1CN(Cc2c[nH]c3c(N)ncnc23)C[C@@H]1O [Compound 19, (3R,4S)-1-({4-Amino-5H-pyrrolo[3,2-d]pyrimidin-7-yl}methyl)-4-[2-(hexylthio)ethyl]pyrrolidin-3-ol]	0.7 ± 0.1	0.14 ± 0.01	0.04 (≈ 0.106 µM)	
Nc1ncnc2c(CN3C[C@H](CSc4ccccn4)[C@@H](O)C3)c[nH]c12 [Compound 24, (3R,4S)-1-({4-Amino-5H-pyrrolo[3,2-d]pyrimidin-7-yl}methyl)-4-[(pyridin-2-ylthio)methyl]pyrrolidin-3-ol]	0.32 ± 0.7	0.041 ± 0.002	0.04 (≈ 0.112 µM)	
Nc1ncnc2c(CN3C[C@H](CSc4cnccn4)[C@@H](O)C3)c[nH]c12 [Compound 27, (3R,4S)-1-({4-Amino-5H-pyrrolo[3,2-d]pyrimidin-7-yl}methyl)-4-[(pyrazin-2-ylthio)methyl]pyrrolidin-3-ol]	0.043 ± 0.001	0.006	0.008 (≈ 0.0224 µM)	
Nc1ncnc2c(CN3C[C@H](CSc4nccs4)[C@@H](O)C3)c[nH]c12 [Compound 29]	0.24 ± 0.07	0.016 ± 0.005	0.02 (≈ 0.0552 µM)	
CSCC1CN(Cc2c[nH]c3c(N)ncnc23)CC1O (stereo not drawn) [Compound 31]			0.006 to 0.012 (≈ 0.0205 to 0.0409 µM)	Ki ([3]; read-out: Inhibition of H. pylori MTAN Ki*, value from Reference 10): 0.57 nM; Ki ([3]; read-out: Inhibition of H. pylori MTAN Ki, value marked (Reference 10)): 1.2 nM
Nc1ncnc2c(CN3C[C@H](CSC4CCCC4)[C@@H](O)C3)c[nH]c12 [Compound 32]	0.78 ± 0.15	0.17 ± 0.01	0.007 to 0.014 (≈ 0.0201 to 0.0403 µM)	
CCCC[C@H]1CN(Cc2c[nH]c3c(N)ncnc23)C[C@@H]1O [Compound 33]	0.058 ± 0.014	0.007 ± 0.002	0.01 (≈ 0.0346 µM)	
CCSC[C@H]1CN(Cc2c[nH]c3c(N)ncnc23)C[C@@H]1O [Compound 34]	0.12 ± 0.03	0.52 ± 0.04	0.016 (≈ 0.052 µM)	
CCC[C@H]1CN(Cc2c[nH]c3c(N)ncnc23)C[C@@H]1O [Compound 35]	0.053 ± 0.007		0.016 (≈ 0.0581 µM)	
Nc1ncnc2c(CN3C[C@H](CSCC4CCCCC4)[C@@H](O)C3)c[nH]c12 [Compound 36]	0.56 ± 0.27	0.045 ± 0.004	0.018 to 0.035 (≈ 0.0479 to 0.0932 µM)	
Nc1ncnc2c(CN3C[C@H](CSC4CCCCCC4)[C@@H](O)C3)c[nH]c12 [Compound 37]	0.4 ± 0.05	0.027 ± 0.002	0.035 to 0.07 (≈ 0.0932 to 0.186 µM)	
Nc1ncnc2c(CN3C[C@H](CSCc4ccccc4)[C@@H](O)C3)c[nH]c12 [Compound 38]	203 ± 28	0.31 ± 0.08	0.04 (≈ 0.108 µM)	
Nc1ncnc2c(CN3C[C@H](CSC4CCC4)[C@@H](O)C3)c[nH]c12 [Compound 40]	0.27 ± 0.04	0.04 ± 0.01		
Nc1ncnc2c(CN3CC(O)C(CSc4ccc(Cl)cc4)C3)c[nH]c12 (stereo not drawn) [Compound 41]				Ki ([3]; value from Reference 10, read-out: Inhibition of H. pylori MTAN Ki*): 0.57 nM; Ki ([3]; value marked (Reference 10), read-out: Inhibition of H. pylori MTAN Ki): 40 nM
CCCSC[C@H]1NC(c2c[nH]c3c(N)ncnc23)[C@H](O)[C@@H]1O (stereo partly drawn) [Compound 42]				Ki [1, 7]: 0.6 ± 0.1 nM; MIC90 [2, 8]: 0.016 µg/mL (≈ 0.0495 µM)
CCCCSC[C@H]1NC(c2c[nH]c3c(N)ncnc23)[C@H](O)[C@@H]1O (stereo partly drawn) [Compound 43]				Ki [1, 7]: 0.51 ± 0.07 nM; Ki [1, 9]: 0.05 ± 0.01 nM; MIC90 [2, 8]: 0.02 µg/mL (≈ 0.0593 µM)
CSC[C@H]1NC(c2c[nH]c3c(N)ncnc23)[C@H](O)[C@@H]1O (stereo partly drawn) [Compound 44]				Ki [1, 7]: 0.98 ± 0.06 nM; Ki [1, 9]: 0.24 ± 0.03 nM; MIC90 [2, 8]: 0.08 µg/mL (≈ 0.271 µM)
Nc1ncnc2c(CN3C[C@H](CSc4n[nH]c(-c5ccncc5)n4)[C@@H](O)C3)c[nH]c12 [Compound 56, (3R,4S)-1-({4-Amino-5H-pyrrolo[3,2-d]pyrimidin-7-yl}methyl)-4-({[5-(pyridin-4-yl)-1H-1,2,4-triazol-3-yl]thio}methyl)pyrrolidin-3-ol]	0.28 ± 0.02		> 0.1	

From patent US11186575B2, “Treatment of helicobacter pylori infections” (Albert Einstein College of Medicine, Inc., priority 2012, dated 2021)
